From patent US9242009B2, “Compositions and methods to treat neurodegenerative diseases” (The General Hospital Corporation, priority 2012, dated 2016)

Columns and labels:
[1] = tested on: phosphorylated tau protein at serine 202 and threonine 205; assay: LPS-induced tau phosphorylation in mice hippocampus (immunoblot); assay type: in vivo; details: 90 μmol/kg pretreatment
mice challenged with LPS = assay: LPS-induced cognitive impairment, Morris water-maze
[2] = tested on: murine primary cortical neurons; assay: Oxygen-glucose deprivation (OGD) of murine primary cortical neurons, LDH release; assay type: cell-based, mice
Experimental: Primary neuronal cultures were prepared from the cortex of embryonic day 15 C57BL6J mice. In brief, brains were harvested and the hemispheres were dissected under a microscope. The cortical neurons were dissociated in Neurobasal medium (Gibco) with B27 supplement (antioxidant plus, Gibco). The cells were seeded into 24 well plates coated with poly-D-lysine (Becton Dickinson Labware, 2×10^5 cells per well), followed by the medium-change with fresh one on the next day. The half of culture medium was replaced with Neurobasal medium witn B27 supplement (antioxidant minus) every other day, and the cultures were maintained at 37° C. in 95% air/5% CO2 in a humidified incubator. Cells were used for experiments 11 days after seeding.
OGD for primary cortical neurons was performed with the similar protocol as above (FIG. 3B). Briefly, the culture medium was replaced with deoxygenated Neurobasal medium without glucose, and then placed in the hypoxic chamber for 2.5 hours. After OGD, the medium was replaced with Neurobasal medium with glucose and incubated for 21 hours at 37° C. in 95% air/5% CO2 in a humidified incubator. […]
A microtiter plate containing cells was centrifuged at 250×g for 10 minutes and the supernatant was used for LDH measurement with LDH Cytotoxicity Detection Kit (Roche). […] Percentage of released LDH was calculated with following formula: {LDH (medium)/LDH (medium+cell)×100}. […]

SH-SY5Y [3] = assay: Intracellular GSH levels in SH-SY5Y (HPLC); assay type: cell-based, Human; details: 50 μM, 8 hours
Experimental: Intracellular GSH level of SH-SY5Y was measured using HPLC method as previously reported (Kimura et al. (2009) Antioxidants & Redox Signaling 12, 1-13). Briefly, cells were seeded into 6 cm dishes (5×10^5 cells per dish) and treated with 50 μM H2S donors or memantine with or without 2 mM glutamate for 8 hours, followed by washing with ice-cold PBS. Cells were scraped and transferred to a microfuge tube and sonicated. Some fraction of lysate was used for protein assay. After centrifugation, 75 μl of supernatant, 26 μl of 2-(cyclohexylamino) ethanesulfonic acid (CHES, 0.5 M, PH 8.4), and 4 μl of 50 μM MBB were mixed and incubated at room temperature in dark for 30 minutes. Acetic acid (100 μl, 30% v/v) was added, followed by centrifugation at 15,000×g for 10 min after 5 min incubation of the tube on ice. The supernatant was analyzed using HPLC at wavelength of λex=370 nm and λem=486 nm.

Aβ1-42 = details: LPS challenge for 7 days
[4] = tested on: murine primary cortical neurons; assay: Intracellular calcium level [Ca2+]i (Fura-2/AM) with or without glutamate; assay type: cell-based, mice; details: 20 μM
SH-SY5Y [5] = assay: Amyloid beta-induced toxicity in SH-SY5Y (LDH release, MTT); assay type: cell-based, Human; details: 24 hours incubation with Aβ1-42 at 20 μM
Experimental: FIG. 12A-B is a set of two bar graphs showing cell viability of SH-SY5Y cells exposed to 20 μM amyloid beta (Aβ) and treated with memantine, ACS48, or S-memantine at 20 or 50 μM. Cell viability was estimated by LDH release assay in the left graph and MTT assay in the right graph.

[6] = tested on: phosphorylated ERK1/2 at threonine 202 and tyrosine 204; assay: Immunoblot of phosphorylated ERK1/2 in SH-SY5Y after OGD; assay type: cell-based, Human; details: 50 μM added 8 hours after end of OGD
Experimental: (§1) OGD for SH-SY5Y was performed by placing cells in a hypoxia chamber ([…] Technologies Inc.) for 15 hours, followed by 24 hours of reoxygenation as previously reported (FIG. 3A) (Serra-Pérez et al. (2008) Journal of Neurochemistry 106, 1237-1247). Briefly, medium was replaced with glucose-free RPMI 1640 with L-glutamine (Cellgro by Mediatech, Inc), deoxygenated with anaerobic gas mixture (93% N2-5% CO2-2% H2) for 30 minutes before use. Cells were then placed in a hypoxia chamber, flushed with anaerobic gas mixture (93% N2-5% CO2-2% H2) and incubated at 37° C. […]
(§2) Protein levels in SH-SY5Y were determined by standard immunoblot techniques using primary antibodies (1:1,000, Cell Signaling Technology Inc., Danvers, Mass.) against cleaved caspase-3, caspase-3, phosphorylated Akt at threonine 308, Akt, phosphorylated ERK1/2 at threonine 202 and tyrosine 204, Erk1/2, β-tubulin and phosphorylated tau protein at serine 202 and threonine 205 (1:250; Thermo scientific, MN1020), tau protein (1:1000; Thermo scientific, MN1010). Bound antibody was detected with a horseradish peroxidase-linked antibody directed against rabbit IgG (1:10,000˜1:25,000; Cell Signaling Technology Inc.), or mouse IgG (1:2,000; GE healthcare, NA931V) and was visualized using chemiluminescence with ECL Advance kit (GE healthcare).

cleaved caspase-3 = assay: Immunoblot of cleaved caspase-3 in SH-SY5Y after OGD; assay type: cell-based, Human; details: 50 μM added 8 hours after end of OGD; 15 hours OGD, 24 hours reoxygenation
Experimental: as §1, §2

[7] = tested on: phosphorylated Akt at threonine 308; assay: Immunoblot of phosphorylated Akt in SH-SY5Y after OGD; assay type: cell-based, Human; details: 50 μM added 8 hours after end of OGD

## C[C@]12C[C@@H]3C[C@](C)(C1)C[C@@](NC(=O)c1ccc(-c4cssc4=S)cc1)(C3)C2 [S-memantine, N-((1r,3R,5S,7r)-3,5-dimethyladamantan-1-yl)-4-(3-thioxo-3H-1,2-dithiol-4-yl)-benzamide]
[1]
  LPS-induced tau phosphorylation at serine 202 and threonine 205 in mice hippocampus: prevented LPS-induced tau phosphorylation
Mice challenged with LPS; 90 μmol/kg i.p.
  Swimming speed in Morris water-maze test: did not change it
Mice challenged with LPS; 90 μmol/kg i.p. 30 min before LPS, 4 hours after LPS-challenge
  Latency until getting platform in Morris water-maze test: improved latency
[2]; 50 μM added 30 minutes after end of OGD, 2.5 hours OGD, 21 hours reoxygenation
  Neuroprotective effect after OGD (LDH release): more robust neuroprotective effects compared to ACS48 or memantine
[2]; incubation starting at 30 minutes or 2 hours after OGD
  Cell viability after OGD: improved
SH-SY5Y [3]
  Magnitude of increase of GSH levels compared with Na2S or ACS48: greater than with Na2S or ACS48
SH-SY5Y [3]; with 2 mM glutamate
  Intracellular GSH levels: restored intracellular GSH levels
SH-SY5Y [3]; without glutamate
  Intracellular GSH levels: increased intracellular GSH levels
Aβ1-42; 90 μmol/kg pretreatment
  Aβ1-42 accumulation in mice cortex, or hippocampus: prevented Aβ1-42 accumulation
Aβ1-42
  Prevention of Aβ1-42 accumulation compared with memantine: prevented Aβ1-42 accumulation more markedly than did memantine
[4]; 100 μM glutamate
  Glutamate-induced calcium accumulation: suppressed calcium accumulation
[4]; without glutamate
  Magnitude of calcium accumulation compared with Na2S or ACS48: markedly smaller than that induced by Na2S or ACS48
SH-SY5Y [5]
  Cell viabilities after Aβ1-42 compared with memantine: improved cell viabilities more markedly than did memantine
SH-SY5Y [5]; compound 20 or 50 μM
  Cell viabilities after Aβ1-42: improved cell viabilities
[6]
  Dephosphorylation of ERK after OGD: attenuated dephosphorylation of ERK
Cleaved caspase-3
  Caspase-3 activation after OGD: prevented caspase-3 activation
[7]
  Akt phosphorylation after OGD: did not affect Akt phosphorylation
